Assay results from patent US12325744B2, “Methods for reducing post-operative cognitive dysfunction (POCD)” (The Kennedy Trust for Rheumatology Research, priority 2010, dated 2025).
“Also recorded” adds a separate entry of the source.

Tested on: C57-BL6 mice
Assay: Delay fear conditioning, auditory-cued test after tibial surgery
Assay type: in vivo
Conditions: wild type mice, surgery with IL-1Ra pre-treatment
Method: Fear conditioning tests. Mice were conditioned 30 minutes or 3 days prior to intervention by training with two cycles of tone and foot-shock pairings. In delay fear conditioning a foot-shock was administered during the last 2 seconds of each 20 seconds-lasting tone.
In trace fear conditioning, the foot-shock onset, lasting 2 seconds as in the previous paradigm, followed a 20-second gap after each tone termination. Three days after conditioning, mice were placed back in the original conditioning chamber for 270 seconds, where no tone or shock were presented, to assess recall of contextual fear memory. After 3 h mice were placed in a novel environment (different context from training) to test for auditory-cued memory. Following an initial baseline period of 135 seconds during which freezing was scored in absence of noise, the auditory cue was presented for the final 135 seconds of the test, and freezing was again recorded. (For further details please refer to supplemental methods).
The behavioral study was conducted using a conditioning chamber (Med. Associates Inc., St. Albans, VT, USA). The back- and the side-walls of the chamber were made of aluminium, whereas the front door and the ceiling were of transparent Plexiglas. The floor of the chamber consisted of 36 stainless steel rods (1 mm diameter) spaced 0.5 cm apart (center-to-center). […]

For “IL-1Ra: IL-1 receptor antagonist (Amgen, Anakinra)”, the “Freezing in the auditory-cued test after delay fear conditioning” value was “showed no difference; also recorded: There was no difference between the groups”.
